Literature values as cited in patent publication US20050107425A1, “Treatment of attention defecit hyperactivity disorder” (Pfizer Inc, priority 2002, published 2005).

How the values were obtained:
[1] = clinical trials of Alzheimer's disease and attention-deficit disorders
[2] = target: α7 nAChR (Homo sapiens, UniProt P36544)
[3] = target: T1, 5HT3R (Homo sapiens, UniProt P46098)
T1 sequence (P46098 24-478): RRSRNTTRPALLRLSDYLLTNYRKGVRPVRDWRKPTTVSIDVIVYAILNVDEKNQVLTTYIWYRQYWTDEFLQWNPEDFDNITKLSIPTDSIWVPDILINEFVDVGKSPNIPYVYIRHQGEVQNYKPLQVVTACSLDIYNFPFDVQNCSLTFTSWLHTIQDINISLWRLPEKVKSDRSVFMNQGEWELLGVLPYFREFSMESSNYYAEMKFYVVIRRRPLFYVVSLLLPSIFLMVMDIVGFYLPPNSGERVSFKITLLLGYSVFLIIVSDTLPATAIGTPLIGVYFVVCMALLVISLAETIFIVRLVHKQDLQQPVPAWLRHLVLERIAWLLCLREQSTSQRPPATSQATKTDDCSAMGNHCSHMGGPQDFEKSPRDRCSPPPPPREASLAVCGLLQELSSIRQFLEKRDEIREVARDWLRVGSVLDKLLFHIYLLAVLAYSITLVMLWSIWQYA

Chain of α7 nAChR (P36544 23-502): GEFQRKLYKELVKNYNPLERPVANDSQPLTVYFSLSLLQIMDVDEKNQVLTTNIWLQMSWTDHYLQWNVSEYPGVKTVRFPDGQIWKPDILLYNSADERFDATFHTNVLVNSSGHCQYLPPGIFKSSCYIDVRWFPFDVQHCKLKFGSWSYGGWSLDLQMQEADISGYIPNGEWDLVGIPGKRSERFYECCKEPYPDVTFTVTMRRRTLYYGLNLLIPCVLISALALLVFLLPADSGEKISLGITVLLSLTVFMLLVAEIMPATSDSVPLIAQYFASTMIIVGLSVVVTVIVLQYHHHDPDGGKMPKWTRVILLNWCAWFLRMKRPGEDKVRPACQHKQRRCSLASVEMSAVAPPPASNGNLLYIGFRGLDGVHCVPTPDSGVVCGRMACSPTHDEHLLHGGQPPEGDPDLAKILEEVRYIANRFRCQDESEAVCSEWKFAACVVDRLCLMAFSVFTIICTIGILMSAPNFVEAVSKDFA

For `Cc1cc([C@@H]2CCCN2C)on1` [ABT-418], the “cognition and attention in clinical trials” value [1] is listed as “improves cognition and attention”.

In the case of `Cc1nccn1CC1CCc2c(c3ccccc3n2C)C1=O` (stereo not drawn) [Ondansetron], the “activity at the α7 nAChR” value [2] is given as “little activity”.

For `COc1ccc(/C=C2\CCCN=C2c2cccnc2)c(OC)c1` [GTS-21], the “activity at the 5HT3R” value [3] is listed as “little activity”.
